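Interpolation was linear, between the two tested concentrations surrounding the appropriate level; five concentrations were tested over 48 hours in 96-well plates. The concentration for 50% growth inhibition is given as GI50. At the TGI there is no net growth.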
Assays:
Experiment in all cases: inhibition of tumour cell growth, NCI panel, 48 h
TK-10 renal = test system: TK-10 renal
KM12 colon = test system: KM12 colon
NCI-H226 lung = test system: NCI-H226 lung
UACC-257 melanoma = test system: UACC-257 melanoma
RXF 393 renal = test system: RXF 393 renal
HT29 colon = test system: HT29 colon
HCT-15 colon = test system: HCT-15 colon
NCI-H522 lung = test system: NCI-H522 lung
A549 NSCLC = test system: A549 NSCLC
OVCAR-3 ovarian = test system: OVCAR-3 ovarian
T-47D breast = test system: T-47D breast
SNB-75 CNS = test system: SNB-75 CNS
UO-31 renal = test system: UO-31 renal
SK-MEL-2 melanoma = test system: SK-MEL-2 melanoma
MCF7 breast = test system: MCF7 breast
M14 melanoma = test system: M14 melanoma
SF-295 CNS = test system: SF-295 CNS
DU-145 prostate = test system: DU-145 prostate
HCC-2998 colon = test system: HCC-2998 colon
SF-268 CNS = test system: SF-268 CNS
U251 CNS = test system: U251 CNS
SNB-19 CNS = test system: SNB-19 CNS
OVCAR-8 ovarian = test system: OVCAR-8 ovarian
MDA-MB-435 = test system: MDA-MB-435
CAKI-1 renal = test system: CAKI-1 renal
EKVX NSCLC = test system: EKVX NSCLC
NCI-H460 lung = test system: NCI-H460 lung
MDA-MB-231 breast = test system: MDA-MB-231 breast
SF-539 CNS = test system: SF-539 CNS
SK-MEL-5 melanoma = test system: SK-MEL-5 melanoma
786-0 renal = test system: 786-0 renal
HS 578T breast = test system: HS 578T breast
HCT-116 colon = test system: HCT-116 colon
A498 renal = test system: A498 renal
UACC-62 melanoma = test system: UACC-62 melanoma
PC-3 prostate = test system: PC-3 prostate
HOP-92 NSCLC = test system: HOP-92 NSCLC
SK-MEL-28 melanoma = test system: SK-MEL-28 melanoma
COLO 205 colon = test system: COLO 205 colon
CCRF-CEM leukemia = test system: CCRF-CEM leukemia
LOX IMVI melanoma = test system: LOX IMVI melanoma
RPMI-8226 leukemia = test system: RPMI-8226 leukemia
SK-OV-3 ovarian = test system: SK-OV-3 ovarian
HOP-62 NSCLC = test system: HOP-62 NSCLC
HL-60(TB) leukemia = test system: HL-60(TB) leukemia
SN12C renal = test system: SN12C renal
NCI/ADR-RES ovarian = test system: NCI/ADR-RES ovarian
IGROV1 ovarian = test system: IGROV1 ovarian
ACHN renal = test system: ACHN renal
BT-549 breast = test system: BT-549 breast
NCI-H23 lung = test system: NCI-H23 lung
SW-620 colon = test system: SW-620 colon
OVCAR-5 ovarian = test system: OVCAR-5 ovarian

## CC1=C(C(=O)Nc2ccc(F)c(Cl)c2)C(c2cccc(Cl)c2)NC(=O)N1 (stereo not given)
TK-10 renal
  GI50: 15.8 µM
  TGI: 41.6 µM
KM12 colon
  GI50: 20.6 µM
  TGI: 38.7 µM
NCI-H226 lung
  GI50: 18.1 µM
  TGI: 48.2 µM
UACC-257 melanoma
  GI50: 21.4 µM
  TGI: 56.2 µM
RXF 393 renal
  GI50: 15 µM
  TGI: 31.5 µM
HT29 colon
  GI50: 14.8 µM
  TGI: 30.1 µM
HCT-15 colon
  GI50: 20.6 µM
  TGI: 46.9 µM
NCI-H522 lung
  GI50: 15.9 µM
  TGI: 33 µM
A549 NSCLC
  GI50: 24.7 µM
  TGI: 85.1 µM
OVCAR-3 ovarian
  GI50: 19.5 µM
  TGI: 56.2 µM
T-47D breast
  GI50: 15.4 µM
  TGI: 53.1 µM
SNB-75 CNS
  GI50: 6.2 µM
  TGI: 25.5 µM
UO-31 renal
  GI50: 16.1 µM
  TGI: 38.1 µM
SK-MEL-2 melanoma
  GI50: 15.7 µM
  TGI: 30.5 µM
MCF7 breast
  GI50: 19.8 µM
  TGI: 46 µM
M14 melanoma
  GI50: 15.8 µM
  TGI: 31.7 µM
SF-295 CNS
  GI50: 20.2 µM
  TGI: 50.9 µM
DU-145 prostate
  GI50: 20.6 µM
  TGI: 55.8 µM
HCC-2998 colon
  GI50: 18.3 µM
  TGI: 32.5 µM
SF-268 CNS
  GI50: 17.2 µM
  TGI: 39.4 µM
U251 CNS
  GI50: 16.5 µM
  TGI: 32.5 µM
SNB-19 CNS
  GI50: 18.1 µM
  TGI: 39 µM
OVCAR-8 ovarian
  GI50: 17.5 µM
  TGI: 39.7 µM
MDA-MB-435
  GI50: 17.9 µM
  TGI: 38 µM
CAKI-1 renal
  GI50: 27.3 µM
  TGI: > 100 µM
EKVX NSCLC
  GI50: 24.2 µM
  TGI: 72.6 µM
NCI-H460 lung
  GI50: 16.4 µM
  TGI: 34 µM
MDA-MB-231 breast
  GI50: 11.6 µM
  TGI: 25.1 µM
SF-539 CNS
  GI50: 19.6 µM
  TGI: 37.2 µM
SK-MEL-5 melanoma
  GI50: 13.6 µM
  TGI: 26.9 µM
786-0 renal
  GI50: 17.4 µM
  TGI: 35.3 µM
HS 578T breast
  GI50: 12.9 µM
  TGI: 37.7 µM
HCT-116 colon
  GI50: 14.7 µM
  TGI: 27.9 µM
A498 renal
  GI50: 1.39 µM
  TGI: 15.5 µM
UACC-62 melanoma
  GI50: 13.2 µM
  TGI: 26.7 µM
PC-3 prostate
  GI50: 17.2 µM
  TGI: 46.9 µM
HOP-92 NSCLC
  GI50: 15.5 µM
  TGI: 33 µM
SK-MEL-28 melanoma
  GI50: 13.8 µM
  TGI: 28 µM
COLO 205 colon
  GI50: 13.7 µM
  TGI: 27.8 µM
CCRF-CEM leukemia
  GI50: 21.2 µM
  TGI: 58.2 µM
LOX IMVI melanoma
  GI50: 16.9 µM
  TGI: 31.6 µM
RPMI-8226 leukemia
  GI50: 16.3 µM
  TGI: 46.9 µM
SK-OV-3 ovarian
  GI50: 19.1 µM
  TGI: 44.6 µM
HOP-62 NSCLC
  GI50: 17.5 µM
  TGI: 35 µM
HL-60(TB) leukemia
  TGI: 0.156 µM
SN12C renal
  GI50: 16 µM
  TGI: 32.1 µM
NCI/ADR-RES ovarian
  GI50: 27.5 µM
  TGI: 67.6 µM
IGROV1 ovarian
  GI50: 12.4 µM
  TGI: 31.3 µM
ACHN renal
  GI50: 18.3 µM
  TGI: 46.4 µM
BT-549 breast
  GI50: 19 µM
  TGI: 42 µM
NCI-H23 lung
  GI50: 16.8 µM
  TGI: 31.9 µM
SW-620 colon
  GI50: 18.9 µM
  TGI: 40.7 µM
OVCAR-5 ovarian
  GI50: 23 µM
  TGI: 45.7 µM

Source: PubChem BioAssay (NCI)
